Experimental data as given in article PMC6027146, “Synthesis and Structure-Activity Relationships of (−)-cis-N-Normetazocine-Based LP1 Derivatives” (Pharmaceuticals, 2018).

Biological target: human-KOR (Homo sapiens, UniProt P41145)
Assay: Radioligand competition binding, [3H]-DPN, HEK293 membranes, KOR
Design: expressed in transfected cells
Conditions: [3H]-DPN displacement; means ± SEM of three experiments in duplicate; read-out: Ki (μM) ± SEM KOR
Protocol: All synthesized compounds were tested in vitro by radioligand competition binding using [^3H]-diprenorphine ([^3H]-DPN) to measure the affinity for opioid receptor subtypes in membranes from HEK293 cells stably expressing either MOR, DOR, or KOR, as previously described.
Confluent monolayers of HEK293 (human embryonic kidney 293) cells stably expressing rat-MOR, rat-DOR, or human-KOR were harvested, collected by centrifugation at 1500 rpm for 5 min, and washed once with phosphate-buffered saline (PBS) at pH 7.5. Membranes from cell pellets were carried out as described by Georgoussi and Zioudrou (1993) and Papakonstantinou et al. (2015). Briefly, cell pellets were resuspended in ice-cold membrane buffer (10 mM Tris-HCl, pH 7.5 and 0.1 mM EDTA), homogenized, and centrifuged at 2,000 g for 3 min at 4 °C. Supernatants were further centrifuged at 45,000 rpm for 30 min at 4 °C. The membrane pellet was resuspended in ice-cold membrane buffer at a protein concentration of approximately 1 mg/mL and stored in aliquots at −70 °C. Protein concentration was determined according to Bradford assay.
In the experiments designed to define compound affinity and selectivity for MOR, DOR, and KOR, membranes expressing each of these opioid receptors ([…]) were incubated at 30 °C for 45 min in buffer containing 50 mM Tris-HCl, pH 7.5, 100 mM NaCl, and 10 mM MgCl2 as described by Georgoussi et al. […] The ability of compounds 10–16 to displace [^3H]-DPN (3.75 nM) binding to the opioid receptors was assessed as described by Morou And Georgoussi (2005). Non-specific binding was measured in the presence of […] Naloxone. The reaction was stopped by rapid filtration and three washes in ice-cold 50 mM Tris-HCl, pH 7.4, through GF/C filters (Whatman, Maidstone, UK) using an automated cell harvester (Brandel Inc., Gaithersburg, MD, USA). The radioactivity was measured by liquid scintillation counting (Liquid Scintillation Analyzer, Packard).
Analysis of the binding data was performed using the Origin 7.5 software (OriginLab Corporation, Northampton, MA, USA). In calcium mobilization experiments, data were analyzed by non-linear curve fitting equation, using GraphPad 5.0 software. […] Ligand efficacy was expressed as intrinsic activity (α), calculated as the ratio between the Emax of the ligand and that of the respective standards. Calcium mobilization data were expressed as FIU (fluorescence intensity units) in percent, over the baseline. Agonist potencies are given as pEC50 (the negative logarithm to base 10 of the molar concentration of an agonist that produces 50% of the maximal possible effect, Emax). Concentration response curves to agonists were fitted with the following equation: Effect = baseline + (Emax − baseline)/(1+10^(LogEC50 − X) ∗ HillSlope) where X is the agonist concentration.

With `C[C@H]1[C@H]2Cc3ccc(O)cc3[C@]1(C)CCN2CCC(=O)Nc1ccccc1` [LP1, 3-[(2R,6R,11R)-8-hydroxy-6,11-dimethyl-1,4,5,6-tetrahydro-2,6-methano-3-benzazocin-3(2H)-yl]-N-phenylpropanamide, reference compound] the Ki was 7.5 ± 0.015 µM.
